# Values quoted from earlier work in patent US20140147496A1, “COMPOSITION AND METHOD FOR FERTILITY THERAPY USING NUTRITIONAL SUPPLEMENTS” (FAIRHAVEN HEALTH, LLC, priority 2009, published 2014).
# Key:
# infertile patients [1] = conditions: 60 mg, mean 103 days, 17 infertile patients
# [2] = system: Infertile men with idiopathic asthenozoospermia; conditions: oral
# [3] = system: idiopathic asthenozoospermic infertile patients; conditions: after administration
# infertile patients [4] = conditions: 2 g/day, two month cross-over, excluding outliers
# [5] = system: patients with idiopathic asthenospermia; conditions: 3 g/d
# [6] = system: patients with idiopathic asthenospermia; conditions: between baseline, 12 week, or 24 weeks
# [7] = system: Patients with inflammatory abacterial prostatovesiculoepididymitis (PVE); conditions: following a 3-month washout period
smiles,measurement,setting,value
COC1=C(OC)C(=O)C(C/C=C(\C)CC/C=C(\C)CC/C=C(\C)CC/C=C(\C)CC/C=C(\C)CC/C=C(\C)CC/C=C(\C)CC/C=C(\C)CC/C=C(\C)CCC=C(C)C)=C(C)C1=O [Coenzyme Q10],standard sperm parameters,infertile patients [1],no significant changes
same,fertilization rate,infertile patients [1]; p<0.05,significant improvement
same,Coenzyme Q10 levels in seminal plasma and in sperm cells,[2]; after 6 months of therapy,increased significantly
same,sperm cell motility,"[2]; after 6 months, computer-assisted analysis",significant increase
same,Coenzyme Q10 in seminal plasma and in sperm cells,[3],significant increase
same,sperm motility,[3],improvement in sperm motility
same,motility after incubation,"sperm samples; samples with initial normal motility, 5 μM or 50 μM, 24 h",no significant change
same,motility,"sperm samples; sperm samples from 22 asthenospermic men, in vitro, 50 μM",significant increases in motility
C[N+](C)(C)C[C@H](O)CC(=O)[O-] [L-carnitine],"semen quality over placebo (concentration, total and forward motility)",infertile patients [4],statistically significant improvement
"CC(=O)O[C@H](CC(=O)[O-])C[N+](C)(C)C [LAC, L-acetyl-carnitine]",sperm cell motility,[5],increased
C[N+](C)(C)CC(O)CC(=O)[O-] (stereo not shown) [carnitine],motility or total motile sperm counts,[6],no significant differences
same,production of reactive oxygen species,[7],highest reduction
same,sperm motility and viability,[7],increased
